pIC50: −log10 of the molar value.
Tests used:
Experiment in all cases: In vitro PAK inhibition assay (Z'-LYTE, SelectScreen Kinase Profiling)
Assay type in all cases: biochemical
[1] = molecular target: PAK1 (Homo sapiens, UniProt Q13153)
Protocol: (§1) Compounds are screened in 1% DMSO (final) in the well. For 10 point titrations, 3-fold serial dilutions are conducted. All Peptide/Kinase Mixtures are diluted to a 2× working concentration in the appropriate Kinase Buffer
The 2×PAK1/Ser/Thr 19 mixture is prepared in 50 mM HEPES pH 7.5, 0.01% BRIJ-35, 10 mM MgCl2, 1 mM EGTA.
(§2) Add the following solutions to a well in a 384-well plate: 2.5 μL of 4× Test Compound OR (100 nL 100× Test Compound plus 2.4 μL kinase buffer) • 5 μL of 2× Peptide/Kinase (PAK) Mixture • 2.5 μL of 4×ATP Solution • 2. Shake the plate for 30-seconds • 3. Incubate the PAK Kinase Reaction at room temperature for 60-minutes • 4. Add 5 μL of Development Reagent Solution to each well • 5. Shake the plate for 30-seconds • 6. Incubate the Development Reaction for 60-minutes • 7. Determine the fluorescence using a fluorescence plate reader • 8. Analyze the fluorescence data
(§3) SelectScreen® Kinase Profiling Service uses XLfit from IDBS.

[2] = molecular target: PAK2 (PAK65) (Homo sapiens, UniProt Q13177)
Protocol: as §1
The 2×PAK2 (PAK65)/Ser/Thr 20 mixture is prepared in 50 mM HEPES pH 7.5, 0.01% BRIJ-35, 10 mM MgCl2, 1 mM EGTA. The final 10 μL Kinase Reaction consists of 0.29-6 ng PAK2 (PAK65) and 2 μM Ser/Thr 20 in 50 mM HEPES pH 7.5, 0.01% BRIJ-35, 10 mM MgCl2, 1 mM EGTA.
as §2, §3

[3] = molecular target: PAK3 (Homo sapiens, UniProt O75914)
Protocol: as §1
The 2×PAK3/Ser/Thr 20 mixture is prepared in 50 mM HEPES pH 7.5, 0.01% BRIJ-35, 10 mM MgCl2, 1 mM EGTA.
as §2, §3

[4] = molecular target: PAK-4 (Homo sapiens, UniProt O96013); conditions: read-out: PAK4 IC50
Protocol: as §1
The 2X PAK-4/Ser/Thr 20 mixture is prepared in 50 mM HEPES pH 7.5, 0.01% BRIJ-35, 10 mM MgCl2, 1 mM EGTA. The final 10 μL Kinase Reaction consists of 0.1-0.75 ng PAK-4 and 2 μM Ser/Thr 20 in 50 mM HEPES pH 7.5, 0.01% BRIJ-35, 10 mM MgCl2, 1 mM EGTA. After the 1 hour Kinase Reaction incubation, 5 μL of a 1:256 dilution of Development Reagent A is added.
as §2, with “Bar-coded Corning, low volume NBS, black 384-well plate (Corning Cat. #3676) • 1. Add the” for “Add the”
SelectScreen® Kinase Profiling Service uses XLfit from IDBS. The dose response curve is curve fit to model number 205 (sigmoidal dose-response model).

PAK3, sequence (O75914 whole entry): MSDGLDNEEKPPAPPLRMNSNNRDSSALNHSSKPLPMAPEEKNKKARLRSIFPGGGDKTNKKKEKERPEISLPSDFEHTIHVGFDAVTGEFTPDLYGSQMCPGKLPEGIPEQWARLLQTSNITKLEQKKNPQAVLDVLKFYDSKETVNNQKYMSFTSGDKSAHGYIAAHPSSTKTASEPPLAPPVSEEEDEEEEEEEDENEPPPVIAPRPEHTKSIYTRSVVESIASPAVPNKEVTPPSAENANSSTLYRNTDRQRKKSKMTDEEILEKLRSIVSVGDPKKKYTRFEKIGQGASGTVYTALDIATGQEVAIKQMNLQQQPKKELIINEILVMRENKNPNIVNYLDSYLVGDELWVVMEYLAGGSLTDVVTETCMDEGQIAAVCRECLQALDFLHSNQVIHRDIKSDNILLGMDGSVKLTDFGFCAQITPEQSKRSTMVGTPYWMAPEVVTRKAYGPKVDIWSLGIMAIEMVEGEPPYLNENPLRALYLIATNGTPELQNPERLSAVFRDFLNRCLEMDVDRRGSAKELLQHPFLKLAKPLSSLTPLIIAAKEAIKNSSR
PAK2 (PAK65), sequence (Q13177 whole entry): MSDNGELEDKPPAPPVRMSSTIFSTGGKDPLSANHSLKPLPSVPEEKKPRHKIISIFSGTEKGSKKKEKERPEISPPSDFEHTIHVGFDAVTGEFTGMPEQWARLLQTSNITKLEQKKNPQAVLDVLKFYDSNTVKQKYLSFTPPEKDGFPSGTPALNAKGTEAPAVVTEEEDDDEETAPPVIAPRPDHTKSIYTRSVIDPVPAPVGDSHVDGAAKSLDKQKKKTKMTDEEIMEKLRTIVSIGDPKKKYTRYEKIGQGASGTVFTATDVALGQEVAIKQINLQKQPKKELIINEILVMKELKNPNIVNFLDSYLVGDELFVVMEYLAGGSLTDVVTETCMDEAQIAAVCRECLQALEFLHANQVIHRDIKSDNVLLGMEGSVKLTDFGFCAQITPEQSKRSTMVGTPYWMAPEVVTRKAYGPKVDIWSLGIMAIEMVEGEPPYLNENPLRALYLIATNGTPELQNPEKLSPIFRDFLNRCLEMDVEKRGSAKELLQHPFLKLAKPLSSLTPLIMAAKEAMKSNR
PAK1, sequence (Q13153 whole entry): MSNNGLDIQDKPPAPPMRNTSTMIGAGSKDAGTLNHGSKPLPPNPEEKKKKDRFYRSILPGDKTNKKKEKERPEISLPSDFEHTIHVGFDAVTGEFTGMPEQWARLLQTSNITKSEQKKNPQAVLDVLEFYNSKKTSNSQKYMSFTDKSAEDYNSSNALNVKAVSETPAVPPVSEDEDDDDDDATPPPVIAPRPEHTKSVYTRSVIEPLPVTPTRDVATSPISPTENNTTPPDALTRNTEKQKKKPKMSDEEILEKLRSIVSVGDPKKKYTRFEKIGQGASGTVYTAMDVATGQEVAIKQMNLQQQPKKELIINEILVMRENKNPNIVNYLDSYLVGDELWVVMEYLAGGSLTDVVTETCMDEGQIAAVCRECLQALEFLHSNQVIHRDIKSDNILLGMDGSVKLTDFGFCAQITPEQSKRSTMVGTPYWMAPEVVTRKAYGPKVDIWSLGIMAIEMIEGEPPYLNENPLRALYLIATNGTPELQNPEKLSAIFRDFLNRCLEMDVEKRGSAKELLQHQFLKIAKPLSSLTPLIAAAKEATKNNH
PAK-4, sequence (O96013 whole entry): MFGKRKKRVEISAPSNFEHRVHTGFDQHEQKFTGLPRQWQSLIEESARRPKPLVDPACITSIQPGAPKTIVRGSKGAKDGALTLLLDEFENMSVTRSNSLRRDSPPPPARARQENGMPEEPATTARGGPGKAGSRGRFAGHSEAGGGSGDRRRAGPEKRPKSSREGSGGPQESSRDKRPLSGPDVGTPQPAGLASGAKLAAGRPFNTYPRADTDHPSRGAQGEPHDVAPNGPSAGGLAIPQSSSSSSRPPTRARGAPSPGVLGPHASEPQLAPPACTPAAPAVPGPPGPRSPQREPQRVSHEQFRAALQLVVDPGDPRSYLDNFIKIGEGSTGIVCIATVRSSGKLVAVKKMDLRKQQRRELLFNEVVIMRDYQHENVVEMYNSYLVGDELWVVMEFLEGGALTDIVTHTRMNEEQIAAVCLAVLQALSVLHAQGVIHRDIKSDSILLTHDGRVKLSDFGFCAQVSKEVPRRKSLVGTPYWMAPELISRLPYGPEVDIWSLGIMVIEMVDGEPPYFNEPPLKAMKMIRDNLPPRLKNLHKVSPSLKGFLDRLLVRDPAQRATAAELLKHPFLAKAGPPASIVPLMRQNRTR

| Structure (SMILES) | pIC50 [1] | pIC50 [2] | pIC50 [3] | pIC50 [4] |
| --- | --- | --- | --- | --- |
| CN1CCN(c2ccc(Nc3ncc4ccc(=O)n(Cc5occc5C5CC5)c4n3)cc2)CC1 | 5.30 to 6.30 | 5.30 to 6.30 | 5.30 to 6.30 | 5.30 to 6.30 |
| CN1CCN(c2ccc(Nc3ncc4ccc(=O)n(Cc5ncsc5C5CC5)c4n3)cc2)CC1 | 6.30 to 7.30 | 5.30 to 6.30 | 5.30 to 6.30 | 5.30 to 6.30 |
| CCn1c(=O)c(-c2ccc(-c3nnco3)cc2Cl)cc2cnc(Nc3ccc(N4CCN(C)CC4)cc3)nc21 | > 7.30 | > 7.30 | > 7.30 | 5.30 to 6.30 |
| CCS(=O)(=O)c1ccccc1Cn1c(=O)ccc2cnc(Nc3ccc(N4CCN(C)CC4)cc3)nc21 | 6.30 to 7.30 | 6.30 to 7.30 | 5.30 to 6.30 | 5.30 to 6.30 |
| CCn1c(=O)c(-c2ccc(S(C)(=O)=O)cc2)cc2cnc(Nc3ccc(N4CCN(C)CC4)cc3)nc21 | < 5.30 | < 5.30 | < 5.30 | ≤ 5.30 |
| CC#Cc1cc2cnc(Nc3ccc(N4CCN(C)CC4)cc3)nc2n(Cc2c(F)cccc2C2CC2)c1=O | 6.30 to 7.30 | 6.30 to 7.30 | 6.30 to 7.30 | 5.30 to 6.30 |
| CN1CCC(c2ccc(Nc3ncc4ccc(=O)n(Cc5c(F)cccc5C5CC5)c4n3)cc2)CC1 | > 7.30 | 6.30 to 7.30 | 6.30 to 7.30 | 6.30 to 7.30 |
| CCn1c(=O)c(-c2cccc(S(C)(=O)=O)c2)cc2cnc(Nc3ccc(N4CCN(C)CC4)cc3)nc21 | 6.30 to 7.30 | 5.30 to 6.30 | 6.30 to 7.30 | ≤ 5.30 |
| CCS(=O)(=O)c1ccccc1Cn1c(=O)c(-c2ccccc2Cl)cc2cnc(Nc3ccc(N4CCN(C)CC4)cc3)nc21 | > 7.30 | > 7.30 | > 7.30 | 5.30 to 6.30 |
| CC#Cc1cc2cnc(Nc3ccc(N4CCN(C)CC4)cc3)nc2n(Cc2ccccc2C(F)(F)F)c1=O | 6.30 to 7.30 | 6.30 to 7.30 | 5.30 to 6.30 | 5.30 to 6.30 |
| CCn1c(=O)c(-c2ccc(-c3cccnc3F)cc2Cl)cc2cnc(Nc3ccc(N4CCN(C)CC4)cc3)nc21 | > 7.30 | > 7.30 | > 7.30 | 6.30 to 7.30 |
| CCn1c(=O)c(-c2ccc(-c3cncs3)cc2Cl)cc2cnc(Nc3ccc(N4CCN(C)CC4)cc3)nc21 |  |  |  | ≤ 5.30 |
| CCn1c(=O)c(-c2ccc(-c3noc(C)n3)cc2Cl)cc2cnc(Nc3ccc(C4CCN(C)CC4)cc3)nc21 | > 7.30 | > 7.30 | > 7.30 | 5.30 to 6.30 |
| CCn1c(=O)c(-c2ccc(-c3ccnc(C(N)=O)c3)cc2Cl)cc2cnc(Nc3ccc(C4CCN(C)CC4)cc3)nc21 | 6.30 to 7.30 | 6.30 to 7.30 | 6.30 to 7.30 | ≤ 5.30 |
| CCn1c(=O)c(-c2ccc(-c3noc(C)n3)cc2Cl)cc2cnc(Nc3ccc(C4CCNCC4)cc3)nc21 | > 7.30 | > 7.30 | 6.30 to 7.30 | 5.30 to 6.30 |
| CCn1c(=O)c(-c2ccc(-c3cnc(C)s3)cc2Cl)cc2cnc(Nc3ccc(C4CCN(C)CC4)cc3)nc21 | > 7.30 | > 7.30 | > 7.30 | 5.30 to 6.30 |
| CCN1CCC(c2ccc(Nc3ncc4cc(-c5ccc(-c6cccnc6C)cc5Cl)c(=O)n(CC)c4n3)cc2)CC1 | > 7.30 | > 7.30 | > 7.30 | ≤ 5.30 |
| CCN1CCC(c2ccc(Nc3ncc4cc(-c5ccc(-c6ccc(C)nc6)cc5Cl)c(=O)n(CC)c4n3)cc2)CC1 | > 7.30 | > 7.30 | > 7.30 | 5.30 to 6.30 |
| CCn1c(=O)c(-c2ccc(-c3cccnc3)cc2Cl)cc2cnc(Nc3ccc(CCN(C)C)cc3)nc21 | > 7.30 | > 7.30 | > 7.30 | 5.30 to 6.30 |

| Structure (SMILES) | pIC50 [1] | pIC50 [2] | pIC50 [3] | pIC50 [4] |
| --- | --- | --- | --- | --- |
| CCn1c(=O)c(-c2ccc(-c3cnc(C)s3)cc2Cl)cc2cnc(Nc3ccc(C4CCNCC4)cc3)nc21 | > 7.30 | > 7.30 | > 7.30 | 5.30 to 6.30 |
| CCn1c(=O)c(-c2ccc(-c3cccnc3C)cc2Cl)cc2cnc(Nc3ccc(C4CCNCC4)cc3)nc21 | > 7.30 | > 7.30 | > 7.30 | ≤ 5.30 |
| CCn1c(=O)c(-c2ccc(-c3ccnc(C)c3)cc2Cl)cc2cnc(Nc3ccc(C4CCNCC4)c(F)c3)nc21 | > 7.30 | > 7.30 | 6.30 to 7.30 | 5.30 to 6.30 |
| CCn1c(=O)c(-c2ccc(-c3cccnc3F)cc2Cl)cc2cnc(Nc3ccc(C4CCNCC4)cc3)nc21 | > 7.30 | > 7.30 | > 7.30 | 6.30 to 7.30 |
| CCn1c(=O)c(-c2ccc(-c3cccnc3F)cc2Cl)cc2cnc(Nc3ccc(C4CCN(C)CC4)cc3)nc21 | > 7.30 | > 7.30 | > 7.30 | 6.30 to 7.30 |
| CCn1c(=O)c(-c2ccc(-c3cccnc3F)cc2Cl)cc2cnc(Nc3ccc(C4CCN5CCCC5C4)cc3)nc21 (centres unmarked) | > 7.30 | > 7.30 | > 7.30 | 5.30 to 6.30 |
| CCn1c(=O)c(-c2ccc(-c3noc(C)n3)cc2Cl)cc2cnc(Nc3ccc(CCN(C)C)cc3)nc21 | > 7.30 | > 7.30 | > 7.30 | 5.30 to 6.30 |
| CCN1CCC(c2ccc(Nc3ncc4cc(-c5ccc(-c6noc(C)n6)cc5Cl)c(=O)n(CC)c4n3)cc2)CC1 | > 7.30 | > 7.30 | > 7.30 | 5.30 to 6.30 |
| Cc1nc(-c2ccc(-c3cc4cnc(Nc5ccc(C6CCN(C)CC6)cc5)nc4n(C)c3=O)c(Cl)c2)no1 | > 7.30 | > 7.30 | > 7.30 | ≤ 5.30 |
| CCn1c(=O)c(-c2ccc(-c3cccnc3C)cc2)cc2cnc(Nc3ccc(C4CCN(C)CC4)cc3)nc21 | 5.30 to 6.30 | 5.30 to 6.30 | 5.30 to 6.30 | ≤ 5.30 |
| CCn1c(=O)c(-c2ccc(-c3cccnc3C)cc2F)cc2cnc(Nc3ccc(C4CCN(C)CC4)cc3)nc21 | 6.30 to 7.30 | 6.30 to 7.30 | 6.30 to 7.30 | ≤ 5.30 |
| CCn1c(=O)c(-c2ccc(-c3cnc(C)cn3)cc2Cl)cc2cnc(Nc3ccc(C4CCN(C)CC4)cc3)nc21 | > 7.30 | > 7.30 | > 7.30 | 6.30 to 7.30 |
| CCn1c(=O)c(-c2ccc(-c3nccnc3C)cc2Cl)cc2cnc(Nc3ccc(C4CCN(C)CC4)cc3)nc21 | > 7.30 | > 7.30 | > 7.30 | 5.30 to 6.30 |
| CCn1c(=O)c(-c2ccc(-c3ccnc(C)n3)cc2Cl)cc2cnc(Nc3ccc(C4CCN(C)CC4)cc3)nc21 | > 7.30 | > 7.30 | > 7.30 | 5.30 to 6.30 |
| CCn1c(=O)c(-c2ccc(-c3cncc(C)n3)cc2Cl)cc2cnc(Nc3ccc(C4CCN(C)CC4)cc3)nc21 | > 7.30 | > 7.30 | > 7.30 | 5.30 to 6.30 |
| CCn1c(=O)c(-c2ccc(-c3cccnc3C)nc2)cc2cnc(Nc3ccc(C4CCN(C)CC4)cc3)nc21 | < 5.30 | < 5.30 | < 5.30 | ≤ 5.30 |
| CN(C)CCc1ccc(Nc2ncc3cc(-c4cc(N(C)C)c(-c5cccnc5)cc4Cl)c(=O)n(C)c3n2)cc1 | > 7.30 | 6.30 to 7.30 | > 7.30 | ≤ 5.30 |
| Cc1cc(-c2nccnc2C)ccc1-c1cc2cnc(Nc3ccc(C4CCN(C)CC4)cc3)nc2n(C)c1=O | > 7.30 | > 7.30 | 6.30 to 7.30 | ≤ 5.30 |
| CCN1CCN(c2ccc(Nc3ncc4cc(-c5ccc(-c6cccnc6)cc5Cl)c(=O)n(CC)c4n3)cc2F)CC1 [drawing 727] | > 7.30 | > 7.30 | > 7.30 | ≤ 5.30 |

— patent US20130158043A1, “PAK INHIBITORS FOR THE TREATMENT OF CANCER” (AFRAXIS, INC., priority 2011, published 2013)
